Read-outs that look alike come from different tables or passages of the source.
How the values were obtained:
[1] = tested on: E. coli K12 BW25113 carrying the pooled ASKA overexpression plasmid library (~4400 ORFs); test: Chemical-genetic profiling: pooled competitive growth of the ASKA gene-overexpression library with and without AMP, deep sequencing readout; type: cell-based, Escherichia coli
Description: We generated chemical-genetic interaction profiles for a diverse set of AMPs (Table 1) by screening them against a comprehensive library of gene overexpressions in E. coli[21]. Increasing gene dosage is a widely applied approach to reveal the targets of small-molecule antibiotics[22],[23]. It also informs on the ‘latent resistome’, that is, the collection of genes where a change from native expression level enhances resistance to a particular drug[24]. We applied a sensitive competition assay by monitoring growth of a pooled plasmid library, overexpressing all the E. coli ORFs (Fig. 1a), as we reported earlier. Specifically, E. coli cells carrying the pooled plasmid collection were grown in the presence or absence of one of the 15 AMPs tested, at a sub-inhibitory concentration that increased the doubling time of the whole population by 2-fold. Following 12 generations of growth, the plasmid pool was isolated from each selection and the relative abundance of each plasmid was determined by a deep sequencing readout (see Methods).
We carried out chemical-genetic profiling to determine the impact of the overexpression of each E. coli ORF on bacterial susceptibility to each of the 15 different AMPs. To this end, we used the complete set of E. coli K-12 Open Reading Frame Archive (ASKA) plasmid library (GFP minus) where each E. coli ORF is cloned into a high copy number expression plasmid (pCA24N-ORFGFP(-)). Prior to screening, the ASKA library was grown in the original host strain E. coli K-12 AG1 in 96-well plates (growth conditions: 37 °C, 280 rpm, LB medium). An equal aliquot of each member of the ASKA library (each well of the 96-well plates) was pooled together and the plasmid DNA (pCA24N-ORF-GFP(-)) was isolated and transformed into E. coli K12 BW25113 strain[51]. To obtain a negative control strain not having any overexpressed gene, the plasmid without a cloned ORF (pCA24N-noORF) was also transformed into the same E. coli strain. Then, on the pooled collection, we applied a previously reported competitive growth assay. Specifically, the pooled overexpression library and the control strain were grown in parallel in MS medium supplemented with 20 µg per ml chloramphenicol and the overexpression was induced by 100 µM isopropyl-ß-D-thiogalactopyranoside (IPTG). After 1 h induction, ~5 × 10^5 bacterial cells from the library were inoculated into each well of a 96-well microtiter plate containing a concentration gradient of an AMP in the MS medium supplemented with 20 µg per ml chloramphenicol and 100 µM IPTG. At the same time, both the library and the control strain with the empty plasmid were grown in the absence of any AMPs. We took special care to grow both of these samples in the exact same conditions as the samples in the presence of AMPs. Bacterial growth was monitored in a microplate reader (Biotek Synergy 2) for 24 h. At the end of the exponential growth phase, we selected those wells in which the doubling time of the cell population was increased by 2-fold. Then, from these wells, cells were split into four equal proportion and each was transferred into 20 mL of MS medium supplemented with the corresponding AMP in four different concentrations in the range that slowed down growth by two-fold in the microtitre plate. […] The rationale for this 2-step process was to maintain competition in exponential phase for 12 generations of growth, efficiently control the growth rate in a reproducible manner and obtain the plasmid pool with standard DNA isolation protocol (innuPREP plasmid mini Kit, Analytik Jena AG) in a yield that is enough for the downstream analysis. The cultures were vigorously shaken along the entire protocol to make sure that the cultures are completely homogeneous and therefore biasing interactions between clones (such as trans-resistance) was minimized. […]

[2] = tested on: E. coli BW25113 overexpression strains (ASKA plasmids); test: Minimum inhibitory concentration (MIC), serial broth dilution, single-gene overexpression strains vs empty-vector control; type: cell-based, Escherichia coli; conditions: for Average relative change in MIC: mlaD overexpression strain relative to control (wild-type+empty vector), 3 replicates each, from optical density values of serial dilution plates, AMP in µg ml-1; for Relative MIC: broth dilution, MS medium, 100 µM IPTG, 30 °C, 20-24 h, OD600, 3 replicates
Procedure, shortened: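 E. coli overexpression strains grown in MS medium with chloramphenicol, induced with 100 µM IPTG for 1 h at 30 °C, then about half-million cells inoculated into 12-step AMP dilutions (typically 1.2-fold steps). OD600 read after 20–24 h at 30 °C with shaking; triplicate strains compared with empty-vector control.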

[3] = tested on: E. coli gene overexpression; conditions: cited from earlier work
Description: Supplement 41467_2019_13618_MOESM1_ESM.docx, table 1: Supplementary Table 1. Collected examples of E. coli gene overexpression from the literature as a confirmation of our chemical-genetic screen results. | column: Overexpression phenotype

bacterial membrane = conditions: literature mining; ref superscript numbers in the cell, listed in Supplementary Data 7 sheet References; cited from earlier work
Description: Supplement 41467_2019_13618_MOESM10_ESM.xlsx, sheet "AMP details" | column: Pore formation

[4] = overexpression strain hyfA, MIC of overexpression strain / MIC of empty-plasmid control
[5] = overexpression strain mlaC, MIC of overexpression strain / MIC of empty-plasmid control
[6] = overexpression strain mlaD, MIC of the overexpression strain / MIC of the control strain (wild-type carrying the empty plasmid)
[7] = overexpression strain murA, MIC of overexpression strain / MIC of empty-plasmid control
[8] = overexpression strain narY, MIC of overexpression strain / MIC of empty-plasmid control
[9] = overexpression strain rpoH, MIC of overexpression strain / MIC of empty-plasmid control
[10] = overexpression strain uhpC, MIC of overexpression strain / MIC of empty-plasmid control
[11] = overexpression strain yhbJ, MIC of overexpression strain / MIC of empty-plasmid control
[12] = overexpression strain ytjB, MIC of overexpression strain / MIC of empty-plasmid control
[13] = overexpression strain cvpA, MIC of overexpression strain / MIC of empty-plasmid control
[14] = overexpression strain gadW, MIC of overexpression strain / MIC of empty-plasmid control
[15] = overexpression strain lptB, MIC of overexpression strain / MIC of empty-plasmid control
[16] = overexpression strain mzrA, MIC of overexpression strain / MIC of empty-plasmid control
[17] = overexpression strain nikB, MIC of overexpression strain / MIC of empty-plasmid control
[18] = overexpression strain ptsN, MIC of overexpression strain / MIC of empty-plasmid control
[19] = overexpression strain yiaJ, MIC of overexpression strain / MIC of empty-plasmid control

## GLRKRLRKFRNKIKEKLKKIGQKIQGFVPKLAPRTDY [CAP18, antimicrobial peptide, source rabbit; disrupts cell membrane; cluster C3]
[1]; gene waaY, whether the literature phenotype was captured by the overexpression screen
  Overexpression phenotype, Chemical-genetic profile: Confirmed
[2]
  Average relative change in MIC: 1.86
[2]; [4]
  Relative MIC: 0.72
[2]; [5]
  Relative MIC: 2.1
[2]; [6]
  Relative MIC: 2.42
[2]; [7]
  Relative MIC: >2.25
[2]; [8]
  Relative MIC: 0.76
[2]; [9]
  Relative MIC: >2.25
[2]; [10]
  Relative MIC: 1.66
[2]; [11]
  Relative MIC: >2.25
[2]; [12]
  Relative MIC: 1.72
[3]; gene waaY overexpressed, ref 10 (Lázár et al. 2018)
  Overexpression phenotype, Literature: Sensitivity^10
Bacterial membrane
  Pore formation (whether AMP makes pores in the bacterial membrane): Yes35

## TSSPPAAVVVRRRRRRRRRRRRRRRRRRR [PROA, Protamine, source herring, purchased from Sigma-Aldrich; cluster C3]
[1]; gene nlpE, whether the literature phenotype was captured by the overexpression screen
  Overexpression phenotype, Chemical-genetic profile: Confirmed
[1]; gene ompT, whether the literature phenotype was captured by the overexpression screen
  Overexpression phenotype, Chemical-genetic profile: Confirmed
[2]
  Average relative change in MIC: 0.70
[2]; [13]
  Relative MIC: 0.78
[2]; [14]
  Relative MIC: 0.78
[2]; [15]
  Relative MIC: 0.51
[2]; [6]
  Relative MIC: 0.72
[2]; [16]
  Relative MIC: 0.36
[2]; [17]
  Relative MIC: <0.71
[2]; overexpression strain ompT, MIC of overexpression strain / MIC of empty-plasmid control
  Relative MIC: >2.5
[2]; [18]
  Relative MIC: 1.47
[2]; [10]
  Relative MIC: <0.61
[2]; [11]
  Relative MIC: 0.69
[2]; [12]
  Relative MIC: 0.8
[3]; gene nlpE overexpressed, ref 6 (Griffin 2013)
  Overexpression phenotype, Literature: Resistance^6
[3]; gene ompT overexpressed, ref 4 (Stumpe et al. 1998)
  Overexpression phenotype, Literature: Resistance^4
Bacterial membrane
  Pore formation (whether AMP makes pores in the bacterial membrane): No43

## RFRPPIRRPPIRPPFYPPFRPPIRPPIFPPIRPPFRPPLGPFP [BAC5, Bactenecin 5, antimicrobial peptide from bovine neutrophils; cluster C4]
[1]; gene ptrB, whether the literature phenotype was captured by the overexpression screen (9 out of 13 captured)
  Overexpression phenotype, Chemical-genetic profile: Confirmed
[1]; overexpressed gene mlaD, read numbers in presence vs absence of AMP, sub-inhibitory dose doubling the doubling time, 12 generations, average of biological replicates
  Chemical-genetic score: -2.101 log2 fold change
[2]
  Average relative change in MIC: 0.74
[2]; [14]
  Relative MIC: 1.3
[2]; [15]
  Relative MIC: 0.67
[2]; overexpression strain mhpA, MIC of overexpression strain / MIC of empty-plasmid control
  Relative MIC: 0.79
[2]; [5]
  Relative MIC: 1
[2]; [6]
  Relative MIC: 0.74
[2]; [7]
  Relative MIC: 0.8
[2]; [9]
  Relative MIC: 0.8
[2]; [11]
  Relative MIC: 0.8
[2]; [19]
  Relative MIC: 0.7
[3]; gene ptrB overexpressed, ref 2 (Mattiuzzo et al. 2014)
  Overexpression phenotype, Literature: Resistance^2

## RWCFRVCYRGICYRKCR [TPII, Tachyplesin II, antimicrobial peptide from Japanese horseshoe crab; disrupts cell membrane; cluster C1]
[2]
  Average relative change in MIC: 1.47
[2]; [14]
  Relative MIC: 1
[2]; [5]
  Relative MIC: 1
[2]; [6]
  Relative MIC: 1.47
[2]; [16]
  Relative MIC: 1.27
[2]; [17]
  Relative MIC: 0.8
Bacterial membrane
  Pore formation (whether AMP makes pores in the bacterial membrane): Yes1

## GIGKFLKKAKKFGKAFVKILKK [PEX, Pexiganan, synthetic Magainin derivative; disrupts cell membrane; cluster C2]
[2]
  Average relative change in MIC: 1.71
[2]; [14]
  Relative MIC: 0.7
[2]; [4]
  Relative MIC: 0.7
[2]; [15]
  Relative MIC: 1.3
[2]; [5]
  Relative MIC: 1.85
[2]; [6]
  Relative MIC: 1.85
[2]; [7]
  Relative MIC: 1.44
[2]; [16]
  Relative MIC: 1
[2]; [8]
  Relative MIC: 0.8
[2]; [9]
  Relative MIC: 1.44
Bacterial membrane
  Pore formation (whether AMP makes pores in the bacterial membrane): Yes13

## ILPWKWPWWPWRR [IND, Indolicidin, antimicrobial peptide from bovine neutrophils; cluster C3]
[2]
  Average relative change in MIC: 0.82
[2]; [13]
  Relative MIC: 0.76
[2]; [4]
  Relative MIC: >1.2
[2]; [6]
  Relative MIC: 0.78
[2]; [7]
  Relative MIC: 0.8
[2]; [16]
  Relative MIC: 0.62
[2]; [17]
  Relative MIC: 0.76
[2]; [18]
  Relative MIC: 0.76
[2]; [9]
  Relative MIC: 0.64
[2]; [10]
  Relative MIC: 0.8
[2]; [19]
  Relative MIC: 0.8
[2]; [12]
  Relative MIC: 0.8
Bacterial membrane
  Pore formation (whether AMP makes pores in the bacterial membrane): Yes39

Reference: article PMC6915728 (Nature Communications, 2019)
